Measured values taken from PubChem BioAssay (NCI).
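All cell lines were grown in 96-well plates and treated with compound for 48 hours. The concentration for full growth arrest is given as TGI.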

Each molecule was assayed on BT-549 breast (assay: NCI anticancer screen, dose series, 48 h).
`CC1=CCC([C@@](C)(O)CCCC(C)(C)N=C=S)CC1` (stereo partly drawn) was tested, and the TGI was 33.5 µM. Molecule `CCN1CN(c2ccccc2)C2(CCN(CC3COc4ccccc4O3)CC2)C1=O` (stereo not drawn) has a TGI of 34.7 µM. In the case of `N[C@@H](Cc1ccccc1)C(=O)N1CCC[C@@H]1P(=O)(Oc1ccccc1)Oc1ccccc1`, the TGI is reported as greater than 100 µM. For `O=c1[nH][nH]c(=O)n1CCCCCCn1c(=O)[nH][nH]c1=O`, the TGI was greater than 100 µM. `C[C@H](CCC(=O)O)[C@H]1CC[C@H]2[C@@H]3C(=O)C[C@@H]4C[C@H](O)CC[C@]4(C)[C@H]3C[C@H](O)[C@]12C` gave a TGI greater than 100 µM. `COc1ccc(-c2nc(SCC(=O)NNC(=S)Nc3ccccc3)[nH]c2-c2ccc(OC)cc2)cc1` gave a TGI of 57 µM. `COC(=O)/C=C\C(C#N)(C#N)N=Cc1ccc(C)cc1` showed a TGI of 11.2 µM. Molecule `CC(c1ccccc1)N1CCN(C(C)c2ccccc2)CC1` (stereo not drawn) has a TGI greater than 100 µM. Molecule `COc1ccc(N2C(=O)CC(=O)N(NC(=O)C(C)Oc3ccccc3C)C2=S)cc1` (stereo not drawn) has a TGI greater than 100 µM. `COc1cc(OC)cc(C(=O)CC(=O)c2cc(OC)cc(OC)c2)c1` showed a TGI greater than 100 µM. `O=C1OC(C2Cc3ccc4ccccc4c3C2=O)c2ccccc21` (stereo not drawn) was tested, and the TGI was greater than 100 µM. `C/C(=N\N=C1/C(=O)OC(c2ccccc2)=C1C(=O)c1ccccc1)c1ccc([N+](=O)[O-])cc1` showed a TGI of 72.6 µM. With `O=C(O)[C@H]1CCCN1CP(=O)(O)CN1CCC[C@@H]1C(=O)O` the TGI was greater than 100 µM. Molecule `O=S(=O)(O)C(CO)c1ccccc1` (stereo not drawn) (tested in a mixture with another compound) has a TGI greater than 100 µM. For `O=C1c2ccccc2C(=O)N1n1c(Cc2ccc([N+](=O)[O-])cc2)n[nH]c1=O`, the TGI was greater than 100 µM. For `Cc1nc(C)c(N2CCN([N+](=O)[O-])CC2)c(=O)[nH]1`, the TGI was greater than 100 µM. In the case of `Cc1nn(-c2ccccc2)c2c1C(c1cc3ccccc3nc1Cl)NC(=O)N2` (stereo not drawn), the TGI is reported as 36.8 µM. Molecule `Cc1cc(/N=C/c2ccc(N(C)C)cc2)n(-c2ccccc2)n1` has a TGI greater than 100 µM. For `O=C(/C=C/c1ccccc1)Oc1ccc(C(=O)/C=C/c2ccccc2)cc1`, the TGI was 17.7 µM. `COC(=O)C(Cc1ccc2c(c1)CCC2)Cc1ccc2c(c1)CCC2` was tested, and the TGI was greater than 100 µM. `C/C(C[n+]1ccccc1)=N\N=C(N)N` showed a TGI greater than 100 µM. `O=[N+]([O-])C(=C(Nc1cccc2cccnc12)Nc1cccc2cccnc12)C(Cl)=C(Cl)Cl` gave a TGI greater than 100 µM. Work on `CNc1cc2c(c3ccccc13)C(CCl)CN2C(=O)c1cc2cc(OC)c(OC)c(OC)c2[nH]1` (stereo not drawn) yielded a TGI of 0.0333 µM. With `NCCCN1c2ccccc2Sc2ccc(Cl)cc21` the TGI was greater than 10 µM. For `CCOC(=O)c1cccc(N=Nc2nc[nH]c2/C=C/C(=O)OC)c1`, the TGI was greater than 100 µM. Molecule `O=C(O)CN1CCN2CCCCCN(CC1)CCN(CC(=O)O)CC2` has a TGI greater than 100 µM. `Cc1cccc(C)c1NC(=O)C(Cc1c[nH]c2ccccc12)NC(=O)OCc1ccccc1` (stereo not drawn) was tested, and the TGI was 65.3 µM. `N#CC(C#N)=C1SC(=Nc2ccccc2)C(=Nc2ccccc2)N1c1ccccc1` was tested, and the TGI was 21.5 µM. For `Cc1ccc(C2=CC(=O)OC(C[P+](c3ccccc3)(c3ccccc3)c3ccccc3)(c3ccccc3)O2)cc1` (stereo not drawn), the TGI was 49.2 µM. `O=c1oc2cc(O)ccc2c(O)c1C(c1ccccc1)c1c(O)c2ccc(O)cc2oc1=O` gave a TGI greater than 100 µM. `O=C1c2cc(-c3ccccc3)cnc2S(=O)(=O)N1c1ccc(Br)cc1` gave a TGI greater than 100 µM. `O=C(NCP(=O)(Oc1ccccc1)Oc1ccccc1)OCc1ccccc1` gave a TGI greater than 100 µM. Work on `CC(=NNC(=S)Nc1ccccc1)c1cccc(C(C)=NNC(=S)Nc2ccccc2)n1` yielded a TGI greater than 100 µM. Molecule `CC(C)c1cc2c(c(O)c1O)[C@@]1(C(=O)O)CCCC(C)(C)[C@@H]1CC2` has a TGI of 28.7 µM. In the case of `COC1=CC(=O)c2c(c(-c3nc(C)cs3)cn2C)C1=O`, the TGI is reported as greater than 57.4 µM. `Cc1c(O)nc(-n2[nH]c3c(c2=O)CCCC3)[nH]c1=O` was tested, and the TGI was greater than 100 µM. `C=CCn1c(=O)c(C(=O)Nc2nc(C34CC5CC(CC(C5)C3)C4)cs2)c(O)c2ccccc21` was tested, and the TGI was greater than 100 µM. `CCOS(C)(=O)=O` was tested, and the TGI was greater than 100 µM. Molecule `C=CCc1cc(-c2nc(=S)[nH][nH]2)ccc1N=NNc1ccc(C(=O)O)cc1` has a TGI of 73.8 µM. For `O=C(O)CN1CCNCCN(CC(=O)O)CCN(CC(=O)O)CCNCC1`, the TGI was greater than 100 µM. `CC(NC(=O)Cc1ccccc1)NC(=O)C(C)C(=O)Nc1ccccc1` (stereo not drawn) showed a TGI greater than 100 µM. Molecule `CC(C)(C)[Si](C)(C)OCC1OC(n2ccc(=O)[nH]c2=O)C(O[Si](C)(C)C(C)(C)C)/C1=C/C#N` (stereo not drawn) has a TGI greater than 100 µM. For `Nc1ccc(N=Nc2c(S(=O)(=O)O)cc3ccccc3c2S(=O)(=O)O)cc1`, the TGI was greater than 100 µM.

What follows are molecules tested on SF-268 CNS (assay: NCI anticancer screen, dose series, 48 h).
With `CC1=CCC([C@@](C)(O)CCCC(C)(C)N=C=S)CC1` (stereo partly drawn) the TGI was 31.6 µM. For `CCN1CN(c2ccccc2)C2(CCN(CC3COc4ccccc4O3)CC2)C1=O` (stereo not drawn), the TGI was greater than 100 µM. `N[C@@H](Cc1ccccc1)C(=O)N1CCC[C@@H]1P(=O)(Oc1ccccc1)Oc1ccccc1` was tested, and the TGI was greater than 100 µM. With `O=c1[nH][nH]c(=O)n1CCCCCCn1c(=O)[nH][nH]c1=O` the TGI was greater than 100 µM. Molecule `C[C@H](CCC(=O)O)[C@H]1CC[C@H]2[C@@H]3C(=O)C[C@@H]4C[C@H](O)CC[C@]4(C)[C@H]3C[C@H](O)[C@]12C` has a TGI greater than 100 µM. With `COc1ccc(-c2nc(SCC(=O)NNC(=S)Nc3ccccc3)[nH]c2-c2ccc(OC)cc2)cc1` the TGI was 59.8 µM. `COC(=O)/C=C\C(C#N)(C#N)N=Cc1ccc(C)cc1` was tested, and the TGI was 9.33 µM. With `CC(c1ccccc1)N1CCN(C(C)c2ccccc2)CC1` (stereo not drawn) the TGI was greater than 100 µM. With `COc1ccc(N2C(=O)CC(=O)N(NC(=O)C(C)Oc3ccccc3C)C2=S)cc1` (stereo not drawn) the TGI was greater than 100 µM. Molecule `COc1cc(OC)cc(C(=O)CC(=O)c2cc(OC)cc(OC)c2)c1` has a TGI greater than 100 µM. Molecule `O=C1OC(C2Cc3ccc4ccccc4c3C2=O)c2ccccc21` (stereo not drawn) has a TGI greater than 100 µM. `C/C(=N\N=C1/C(=O)OC(c2ccccc2)=C1C(=O)c1ccccc1)c1ccc([N+](=O)[O-])cc1` was tested, and the TGI was greater than 100 µM. In the case of `O=C(O)[C@H]1CCCN1CP(=O)(O)CN1CCC[C@@H]1C(=O)O`, the TGI is reported as greater than 100 µM. With `O=S(=O)(O)C(CO)c1ccccc1` (stereo not drawn) (tested in a mixture with another compound) the TGI was greater than 100 µM. For `O=C1c2ccccc2C(=O)N1n1c(Cc2ccc([N+](=O)[O-])cc2)n[nH]c1=O`, the TGI was greater than 100 µM. `Cc1nc(C)c(N2CCN([N+](=O)[O-])CC2)c(=O)[nH]1` showed a TGI greater than 100 µM. `Cc1nn(-c2ccccc2)c2c1C(c1cc3ccccc3nc1Cl)NC(=O)N2` (stereo not drawn) showed a TGI greater than 100 µM. With `Cc1cc(/N=C/c2ccc(N(C)C)cc2)n(-c2ccccc2)n1` the TGI was greater than 100 µM. `O=C(/C=C/c1ccccc1)Oc1ccc(C(=O)/C=C/c2ccccc2)cc1` was tested, and the TGI was 18.3 µM. Work on `COC(=O)C(Cc1ccc2c(c1)CCC2)Cc1ccc2c(c1)CCC2` yielded a TGI greater than 100 µM. `C/C(C[n+]1ccccc1)=N\N=C(N)N` showed a TGI greater than 100 µM. With `O=[N+]([O-])C(=C(Nc1cccc2cccnc12)Nc1cccc2cccnc12)C(Cl)=C(Cl)Cl` the TGI was greater than 100 µM. `NCCCN1c2ccccc2Sc2ccc(Cl)cc21` showed a TGI greater than 10 µM. In the case of `CCOC(=O)c1cccc(N=Nc2nc[nH]c2/C=C/C(=O)OC)c1`, the TGI is reported as greater than 100 µM. Work on `Cc1cccc(C)c1NC(=O)C(Cc1c[nH]c2ccccc12)NC(=O)OCc1ccccc1` (stereo not drawn) yielded a TGI greater than 100 µM. With `N#CC(C#N)=C1SC(=Nc2ccccc2)C(=Nc2ccccc2)N1c1ccccc1` the TGI was greater than 66.7 µM. `Cc1ccc(C2=CC(=O)OC(C[P+](c3ccccc3)(c3ccccc3)c3ccccc3)(c3ccccc3)O2)cc1` (stereo not drawn) was tested, and the TGI was 38.2 µM. `O=c1oc2cc(O)ccc2c(O)c1C(c1ccccc1)c1c(O)c2ccc(O)cc2oc1=O` showed a TGI greater than 100 µM. `O=C1c2cc(-c3ccccc3)cnc2S(=O)(=O)N1c1ccc(Br)cc1` was tested, and the TGI was greater than 100 µM. Work on `O=C(NCP(=O)(Oc1ccccc1)Oc1ccccc1)OCc1ccccc1` yielded a TGI greater than 100 µM. In the case of `CC(=NNC(=S)Nc1ccccc1)c1cccc(C(C)=NNC(=S)Nc2ccccc2)n1`, the TGI is reported as greater than 100 µM. `CC(C)c1cc2c(c(O)c1O)[C@@]1(C(=O)O)CCCC(C)(C)[C@@H]1CC2` was tested, and the TGI was 41.3 µM. For `COC1=CC(=O)c2c(c(-c3nc(C)cs3)cn2C)C1=O`, the TGI was 39.6 µM. For `Cc1c(O)nc(-n2[nH]c3c(c2=O)CCCC3)[nH]c1=O`, the TGI was greater than 100 µM. Work on `CCOS(C)(=O)=O` yielded a TGI greater than 100 µM. `C=CCc1cc(-c2nc(=S)[nH][nH]2)ccc1N=NNc1ccc(C(=O)O)cc1` showed a TGI greater than 100 µM. In the case of `CC(NC(=O)Cc1ccccc1)NC(=O)C(C)C(=O)Nc1ccccc1` (stereo not drawn), the TGI is reported as greater than 100 µM. Molecule `CC(C)(C)[Si](C)(C)OCC1OC(n2ccc(=O)[nH]c2=O)C(O[Si](C)(C)C(C)(C)C)/C1=C/C#N` (stereo not drawn) has a TGI greater than 100 µM. In the case of `Nc1ccc(N=Nc2c(S(=O)(=O)O)cc3ccccc3c2S(=O)(=O)O)cc1`, the TGI is reported as greater than 100 µM.

These molecules were tested on U251 CNS (assay: NCI anticancer screen, dose series, 48 h).
For `CC1=CCC([C@@](C)(O)CCCC(C)(C)N=C=S)CC1` (stereo partly drawn), the TGI was 32.9 µM. Work on `CCN1CN(c2ccccc2)C2(CCN(CC3COc4ccccc4O3)CC2)C1=O` (stereo not drawn) yielded a TGI greater than 100 µM. Work on `N[C@@H](Cc1ccccc1)C(=O)N1CCC[C@@H]1P(=O)(Oc1ccccc1)Oc1ccccc1` yielded a TGI greater than 100 µM. `O=c1[nH][nH]c(=O)n1CCCCCCn1c(=O)[nH][nH]c1=O` was tested, and the TGI was greater than 100 µM. `C[C@H](CCC(=O)O)[C@H]1CC[C@H]2[C@@H]3C(=O)C[C@@H]4C[C@H](O)CC[C@]4(C)[C@H]3C[C@H](O)[C@]12C` showed a TGI greater than 100 µM. Molecule `COc1ccc(-c2nc(SCC(=O)NNC(=S)Nc3ccccc3)[nH]c2-c2ccc(OC)cc2)cc1` has a TGI of 32 µM. Molecule `COC(=O)/C=C\C(C#N)(C#N)N=Cc1ccc(C)cc1` has a TGI of 27.7 µM. Work on `CC(c1ccccc1)N1CCN(C(C)c2ccccc2)CC1` (stereo not drawn) yielded a TGI greater than 100 µM. `COc1ccc(N2C(=O)CC(=O)N(NC(=O)C(C)Oc3ccccc3C)C2=S)cc1` (stereo not drawn) was tested, and the TGI was greater than 100 µM. `COc1cc(OC)cc(C(=O)CC(=O)c2cc(OC)cc(OC)c2)c1` gave a TGI greater than 100 µM. In the case of `O=C1OC(C2Cc3ccc4ccccc4c3C2=O)c2ccccc21` (stereo not drawn), the TGI is reported as greater than 100 µM. `C/C(=N\N=C1/C(=O)OC(c2ccccc2)=C1C(=O)c1ccccc1)c1ccc([N+](=O)[O-])cc1` showed a TGI greater than 100 µM. With `O=C(O)[C@H]1CCCN1CP(=O)(O)CN1CCC[C@@H]1C(=O)O` the TGI was greater than 100 µM. Work on `O=S(=O)(O)C(CO)c1ccccc1` (stereo not drawn) (tested in a mixture with another compound) yielded a TGI greater than 100 µM. Work on `O=C1c2ccccc2C(=O)N1n1c(Cc2ccc([N+](=O)[O-])cc2)n[nH]c1=O` yielded a TGI greater than 100 µM. In the case of `Cc1nc(C)c(N2CCN([N+](=O)[O-])CC2)c(=O)[nH]1`, the TGI is reported as greater than 100 µM. For `Cc1nn(-c2ccccc2)c2c1C(c1cc3ccccc3nc1Cl)NC(=O)N2` (stereo not drawn), the TGI was 38.2 µM. For `Cc1cc(/N=C/c2ccc(N(C)C)cc2)n(-c2ccccc2)n1`, the TGI was greater than 100 µM. Molecule `COC(=O)C(Cc1ccc2c(c1)CCC2)Cc1ccc2c(c1)CCC2` has a TGI greater than 100 µM. For `C/C(C[n+]1ccccc1)=N\N=C(N)N`, the TGI was greater than 100 µM. Molecule `O=[N+]([O-])C(=C(Nc1cccc2cccnc12)Nc1cccc2cccnc12)C(Cl)=C(Cl)Cl` has a TGI greater than 100 µM.
